# Test results taken from publication PMC8382222, “Easy Surface Functionalization and Bioconjugation of Peptides as Capture Agents of a Microfluidic Biosensing Platform for Multiplex Assay in Serum” (Bioconjugate Chemistry, 2021).
# Positions of bridges follow the written chain, without caps; N, C: chain ends. Residues, ends and D or L forms follow the SMILES beside them.
# Assays:
# CRP protein = target: T1, CRP protein (Homo sapiens, UniProt P02741); test: One-step injection SPR (Taylor dispersion), CRP immobilized; type: binding
# T1 construct: purchased Sigma-Aldrich
# T1 sequence (P02741 19-224): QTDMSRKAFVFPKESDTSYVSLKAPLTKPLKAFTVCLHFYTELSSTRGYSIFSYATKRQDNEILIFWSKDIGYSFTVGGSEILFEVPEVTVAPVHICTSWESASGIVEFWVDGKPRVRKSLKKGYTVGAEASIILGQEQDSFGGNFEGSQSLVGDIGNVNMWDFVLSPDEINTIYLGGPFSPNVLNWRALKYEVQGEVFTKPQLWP
# Description: (§1) SPR experiments were performed by one-step injection with the aim of evaluating and confirming the binding constant between peptide and biomarkers. Analyte concentrations of 30 μM of VEFG-114 peptide and 245 μM of CRP-1 peptide were used. The one-step experiment was based on the Taylor dispersion theory, so a unique concentration of peptide was dispersed into a running buffer directly in the flow cell in order to have a final sigmoidal profile.[41],[42] […] For the G6 peptide, the affinity against the TNFα protein was previously estimated by our research group in a recent study (data not shown).[18]
# SPR experiments were performed by one-step injection. VEGF and CRP protein were immobilized at a concentration of 100 μg/mL in a 10 mM acetate buffer pH 4.5 and 3.5, respectively, (flow 10 μL/min, injection time 20 min) on a COOH1 SensiQ sensor chip, using EDC/NHS chemistry (0.4 M EDC/0.1 M NHS, flow 25 μL/min, injection time 4 min), achieving an 800 RU signal. Groups of reactive residues were deactivated by treatment with ethanolamine hydrochloride 1 M, pH 8.5. The reference channel was prepared by activation with EDC/NHS and deactivation with ethanolamine. Analyte concentrations of 30 μM for VEFG-114 peptide and 245 μM for CRP-1 peptide were used with a flow rate of 100 μL min^–1 and a 300 s dissociation time. […]
# VEGF protein = target: T2, VEGF protein (Homo sapiens, UniProt P15692); test: One-step injection SPR (Taylor dispersion), VEGF immobilized; type: binding
# T2 construct: purchased Peprotech
# T2 sequence (P15692 1-191 isoform P15692-4): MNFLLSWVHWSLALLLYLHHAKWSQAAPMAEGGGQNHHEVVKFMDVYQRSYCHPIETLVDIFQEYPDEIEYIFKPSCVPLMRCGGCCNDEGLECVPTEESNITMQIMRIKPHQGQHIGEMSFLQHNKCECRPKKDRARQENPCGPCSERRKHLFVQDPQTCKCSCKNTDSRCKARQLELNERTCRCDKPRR
# Description: as §1
# Reagents for peptide synthesis (Fmoc-protected amino acids, resins, activation, and deprotection reagents) were purchased from Iris Biotech GmbH (Waldershofer Str. 49–51, 95615); EDC/NHS, PDMS, and CRP (C- Reactive Protein) were from Sigma-Aldrich. VEGF (Recombinant Human VEGF165) was purchased from Peprotech. Anti-CRP (Anti-C Reactive Protein antibody (FITC) (ab19174)) and Anti-VEGF (Anti-Recombinant Human VEGF antibody (FITC)) were from Abcam. TNF-α and Anti-TNF-α (Anti-Tumor Necrosis Factor-α antibody (FITC)) were from Prospec. Solvents for peptide synthesis and HPLC analyses were purchased from Sigma-Aldrich; reversed-phase columns for peptide analysis and the LC–MS system were supplied, respectively, from Agilent Technologies and Waters (Milan, Italy). […]
"dissociation value (in words) (CRP protein; 245 μM CRP-1 peptide, 1:1 interaction model)","Kd (CRP protein; CRP immobilized at 100 μg/mL (10 mM acetate pH 3.5) on COOH1 SensiQ chip, 245 μM CRP-1 analyte, 100 μL/min, 300 s dissociation, 1:1 binding model, QDAT, mean ± SD)","dissociation value (in words) (VEGF protein; 30 μM peptide, 1:1 interaction model)","Kd (VEGF protein; VEGF immobilized at 100 μg/mL (10 mM acetate pH 4.5) on COOH1 SensiQ chip, 30 μM VEGF-114 analyte, 100 μL/min, 300 s dissociation, 1:1 binding model, QDAT, mean ± SD)",Structure (SMILES)
low micromolar,12 ± 0.1 µM,,,CC(C)C[C@H](NC(=O)[C@H](CCC(N)=O)NC(=O)[C@@H]1CSSC[C@H](NC(=O)[C@H](C)NC(=O)[C@H](Cc2c[nH]c3ccccc23)NC(=O)[C@@H](N)CCC(=O)O)C(=O)N[C@@H](CC(N)=O)C(=O)N[C@@H](CC(=O)O)C(=O)N[C@@H](CCCNC(=N)N)C(=O)NCC(=O)N[C@@H](Cc2ccccc2)C(=O)N[C@@H](CC(N)=O)C(=O)N1)C(=O)N[C@@H](CCC(N)=O)C(=O)N[C@@H](CCCNC(=N)N)C(N)=O [CRP-1] (H-EWACNDRGFNCQLQR-NH2; disulfide 4-11)
,,low micromolar,10 ± 0.7 µM,CC[C@H](C)[C@@H]1NC(=O)[C@H](CC(=O)O)NC(=O)[C@@H](NC(=O)[C@H](CC(N)=O)NC(=O)[C@@H]2CCCN2C(=O)[C@H](CCC(=O)O)NC(=O)[C@@H](N)C(C)C)CSSC[C@@H](C(=O)N[C@@H](Cc2ccccc2)C(=O)N[C@@H](CCC(=O)O)C(=O)N[C@@H](CCCNC(=N)N)C(=O)N[C@@H](CC(C)C)C(N)=O)NC(=O)[C@H](CCC(=O)O)NC(=O)[C@H](Cc2c[nH]c3ccccc23)NC(=O)[C@H](CCC(=O)O)NC(=O)[C@H](Cc2c[nH]c3ccccc23)NC(=O)[C@H](CCSC)NC(=O)[C@H](C(C)C)NC(=O)[C@H](Cc2c[nH]cn2)NC1=O [VEGF-114] (H-VEPNCDIHVMWEWECFERL-NH2; disulfide 5-15)
